{"source": "patent US8067464B2", "about": "“Compositions and methods using apocynin compounds and nitric oxide donors” (Nitromed, Inc., priority 2004, dated 2011)", "origin": "cited, not measured here", "data": [{"smiles": "O=[N+]([O-])O[C@H]1CO[C@H]2[C@@H]1OC[C@H]2O[N+](=O)[O-]", "note": "[isosorbide dinitrate, 1,4,3,6-dianhydro-D-glucitol-2,5-dinitrate]", "values": [{"measurement": "solubility in organic solvents", "setting": "organic solvents such as ethanol, ether and chloroform", "value": "freely soluble"}, {"measurement": "solubility in water", "setting": "water", "value": "sparingly soluble"}]}]}
